Measured values reported in US9717775B2 (priority 2006, dated 2017).

Legend:
[1] = molecular target: α9α10 nAChR (Rattus norvegicus, UniProt P43144+Q9JLB5); assay type: cell-based
[2] = system: CCI-induced mechanical hypersensitivity; parameters: species or system male Sprague-Dawley rats; details: rat, in vivo
[3] = molecular target: α1β1δε nAChR (muscle) (Homo sapiens, UniProt P02708+P11230+Q04844+Q07001); assay type: cell-based
α1β1δε nAChR (muscle), sequence (P02708 21-457 limits assumed): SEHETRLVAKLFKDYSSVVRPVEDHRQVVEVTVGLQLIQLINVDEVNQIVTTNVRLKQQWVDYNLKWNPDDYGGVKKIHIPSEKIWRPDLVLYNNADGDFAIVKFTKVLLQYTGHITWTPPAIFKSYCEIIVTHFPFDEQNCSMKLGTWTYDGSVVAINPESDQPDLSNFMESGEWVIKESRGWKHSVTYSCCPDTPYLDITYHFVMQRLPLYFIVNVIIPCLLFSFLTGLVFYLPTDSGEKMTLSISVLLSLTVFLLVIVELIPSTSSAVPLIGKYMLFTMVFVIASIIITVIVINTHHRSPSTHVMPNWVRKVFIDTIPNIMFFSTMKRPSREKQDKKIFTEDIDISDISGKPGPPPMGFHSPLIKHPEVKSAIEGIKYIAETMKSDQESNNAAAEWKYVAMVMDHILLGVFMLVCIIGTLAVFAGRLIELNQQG
α1β1δε nAChR (muscle), sequence (P11230 24-501 limits assumed): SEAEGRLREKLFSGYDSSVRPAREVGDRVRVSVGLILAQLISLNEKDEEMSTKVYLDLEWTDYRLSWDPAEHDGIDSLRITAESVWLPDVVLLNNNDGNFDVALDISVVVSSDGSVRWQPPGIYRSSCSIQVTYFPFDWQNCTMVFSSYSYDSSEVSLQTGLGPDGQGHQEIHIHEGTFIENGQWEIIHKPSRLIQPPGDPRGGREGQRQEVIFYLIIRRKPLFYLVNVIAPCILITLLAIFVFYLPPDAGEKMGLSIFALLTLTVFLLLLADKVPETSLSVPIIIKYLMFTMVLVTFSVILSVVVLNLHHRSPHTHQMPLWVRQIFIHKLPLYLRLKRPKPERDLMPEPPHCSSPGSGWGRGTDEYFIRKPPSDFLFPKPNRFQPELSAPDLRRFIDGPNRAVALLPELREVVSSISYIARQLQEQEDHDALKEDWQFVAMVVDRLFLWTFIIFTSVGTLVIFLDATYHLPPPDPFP
α1β1δε nAChR (muscle), sequence (Q07001 22-517 limits assumed): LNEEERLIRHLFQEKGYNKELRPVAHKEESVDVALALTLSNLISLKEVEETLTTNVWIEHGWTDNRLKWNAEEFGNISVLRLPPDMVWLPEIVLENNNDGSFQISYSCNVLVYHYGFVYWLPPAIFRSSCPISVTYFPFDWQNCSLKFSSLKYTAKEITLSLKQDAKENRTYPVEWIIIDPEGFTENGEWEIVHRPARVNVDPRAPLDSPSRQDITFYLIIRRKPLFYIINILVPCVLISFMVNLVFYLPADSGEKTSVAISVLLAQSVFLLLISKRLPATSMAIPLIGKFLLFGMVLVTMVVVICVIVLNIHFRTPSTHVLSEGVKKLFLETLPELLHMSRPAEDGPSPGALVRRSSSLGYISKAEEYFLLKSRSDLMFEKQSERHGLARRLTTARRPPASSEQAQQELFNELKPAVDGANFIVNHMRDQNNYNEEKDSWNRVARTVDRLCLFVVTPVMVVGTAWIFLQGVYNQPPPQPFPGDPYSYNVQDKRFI
α1β1δε nAChR (muscle), sequence (Q04844 21-493 limits assumed): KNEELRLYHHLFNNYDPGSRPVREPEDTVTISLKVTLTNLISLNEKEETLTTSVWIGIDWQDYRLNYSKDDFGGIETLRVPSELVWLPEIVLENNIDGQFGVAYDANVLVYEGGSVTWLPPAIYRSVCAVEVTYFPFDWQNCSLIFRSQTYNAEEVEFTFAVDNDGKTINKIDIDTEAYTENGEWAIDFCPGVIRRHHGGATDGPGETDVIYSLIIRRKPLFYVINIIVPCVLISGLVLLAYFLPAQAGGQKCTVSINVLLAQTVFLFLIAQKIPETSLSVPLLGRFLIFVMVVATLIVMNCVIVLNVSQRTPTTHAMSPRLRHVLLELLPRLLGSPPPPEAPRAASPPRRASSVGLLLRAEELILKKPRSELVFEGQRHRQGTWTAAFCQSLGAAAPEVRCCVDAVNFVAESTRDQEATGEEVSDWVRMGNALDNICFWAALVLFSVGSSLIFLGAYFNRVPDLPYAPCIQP

α9α10 nAChR, sequence (P43144 26-479 limits assumed): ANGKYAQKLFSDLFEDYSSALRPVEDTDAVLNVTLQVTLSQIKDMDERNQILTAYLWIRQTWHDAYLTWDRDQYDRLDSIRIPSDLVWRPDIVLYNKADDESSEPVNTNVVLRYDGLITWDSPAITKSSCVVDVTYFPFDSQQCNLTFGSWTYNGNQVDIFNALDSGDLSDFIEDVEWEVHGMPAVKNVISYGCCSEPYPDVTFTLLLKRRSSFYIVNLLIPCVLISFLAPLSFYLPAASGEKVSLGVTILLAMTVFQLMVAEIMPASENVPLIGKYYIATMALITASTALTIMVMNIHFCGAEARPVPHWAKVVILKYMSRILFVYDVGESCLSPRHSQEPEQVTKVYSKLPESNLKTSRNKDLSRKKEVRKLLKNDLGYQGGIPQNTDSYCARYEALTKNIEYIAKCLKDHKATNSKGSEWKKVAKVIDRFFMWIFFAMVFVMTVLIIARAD
α9α10 nAChR, sequence (Q9JLB5 25-447 limits assumed): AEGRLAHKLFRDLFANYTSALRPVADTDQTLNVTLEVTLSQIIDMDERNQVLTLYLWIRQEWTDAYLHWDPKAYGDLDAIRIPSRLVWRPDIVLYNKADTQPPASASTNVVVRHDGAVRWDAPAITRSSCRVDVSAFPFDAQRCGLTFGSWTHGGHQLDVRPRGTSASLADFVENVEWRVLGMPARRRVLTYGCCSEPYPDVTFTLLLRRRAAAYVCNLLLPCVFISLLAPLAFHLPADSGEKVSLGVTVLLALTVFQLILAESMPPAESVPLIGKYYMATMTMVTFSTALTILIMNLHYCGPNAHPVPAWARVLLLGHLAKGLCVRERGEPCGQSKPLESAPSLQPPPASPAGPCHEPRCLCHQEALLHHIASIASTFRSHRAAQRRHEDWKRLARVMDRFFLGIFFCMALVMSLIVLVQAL

α-conotoxin RgIA
Hill slope [1]: 1.13±0.11
IC50 [1]: 0.0048 µM
increase of paw withdrawal thresholds ipsilateral to sciatic nerve ligation [2]: 65±17%
time to significant increase of PWT ipsilateral to CCI [2]: 3 to 4 h
Hill slope [3]: 0.931±0.40
IC50 [3]: 16.1 µM
